In the CATMoS acute toxicity set (Mansouri et al. 2021) one finds GHS category data, which are given here for 64 compounds.

The nature of the data set: GHS categories as the set defines them, by LD50: 1 up to 5, 2 up to 50, 3 up to 300, 4 up to 2000, 5 above 2000 mg/kg. Particulars: rat; in vivo; po.

`C=C(C)C1CCC(C)C(OC(C)=O)C1` (centres undefined) registered a GHS category of 5.

For the compound `CC1(C)COB(OCC(C)(C)COB2OCC(C)(C)CO2)OC1`, the GHS category is given as 5.

Turning to `COc1nn(-c2cccc(C(F)(F)F)c2)c2ncccc12`, the GHS category is given as 4.

For the compound `CO[C@@H](c1cc(C)c(O)c(C)c1)[C@@H](C)CO`, the GHS category is 5.

The compound `O=c1ccc2cccnc2n1-c1cccc(C(F)(F)F)c1` came in with a GHS category of 3.

In turn, `CCCCCCCCCCN(C)CCCCCCCCCC` showed a GHS category of 4.

Compound `CCCCCCOC(=O)CCCCC(=O)OCCCCCC` registered a GHS category of 5.

On to `CCC(=O)OC1CC2CC1C1CC=CC21` (centres undefined), for which the GHS category is recorded as 5.

In turn, `N[C@@H](Cc1cnc[nH]1)C(=O)O` returned a GHS category of 5.

Take `CCCCc1ccc2[nH]c(NC(=O)OC)nc2c1`: the GHS category is on record as 2.

`CC(C)=CCC/C(C)=C\COC(=O)C(C)C` came in with a GHS category of 5.

In turn, `CC(C)C[C@H](NC(=O)CNC(=O)[C@H](Cc1ccc(O)cc1)NC(=O)[C@H](CO)NC(=O)[C@H](Cc1c[nH]c2ccccc12)NC(=O)[C@H](Cc1cnc[nH]1)NC(=O)[C@@H]1CCC(=O)N1)C(=O)N[C@@H](CCCN=C(N)N)C(=O)N1CCC[C@H]1C(=O)NCC(N)=O` yielded a GHS category of 5.

In the case of `CC1(C)CC2(CC(C)(C)N1)OC1(CCCCCCCCCCC1)NC2=O`, the GHS category turned out to be 5.

Regarding `CCOc1nc(F)cc2nc(S(=O)(=O)Nc3c(Cl)cccc3C(=O)OC)nn12`, the GHS category worked out at 5.

Compound `Cc1ccc(Nc2ccc(Nc3ccc(C)cc3S(=O)(=O)O)c3c2C(=O)c2c(O)ccc(O)c2C3=O)c(S(=O)(=O)O)c1` displayed a GHS category of 5.

Compound `CN[C@@H]1[C@@H](O)[C@@H](O[C@@H]2[C@@H](O)[C@H](OC3OC(CN)=CCC3N)[C@@H](N)C[C@H]2N)OC[C@]1(C)O` (some centres undefined) registered a GHS category of 5.

As for `C[C@@H]1[C@H](O)[C@@H](C)C=CC=CC=CC=CC=CC=CC=C[C@H](O[C@@H]2O[C@H](C)[C@@H](O)[C@H](N)[C@@H]2O)C[C@@H]2O[C@](O)(C[C@@H](O)C[C@@H](O)[C@H](O)CC[C@@H](O)C[C@@H](O)CC(=O)O[C@H]1C)C[C@H](O)[C@H]2C(=O)O`, the GHS category was found to be 5.

For `O=C1c2c(Cl)c(Cl)c(Cl)c(Cl)c2C(=O)C1c1ccc2cccc(N3C(=O)c4c(Cl)c(Cl)c(Cl)c(Cl)c4C3=O)c2n1`, the GHS category is reported as 5.

The compound `CCOC(=O)CC(CC(C)=O)C(=O)OCC` (centres undefined) displayed a GHS category of 5.

The compound `CCCCCCCCCC` gave a GHS category of 5.

Compound `O=C(CCCCC(=O)N(CCO)CCO)N(CCO)CCO` gave a GHS category of 5.

As to `COC(=O)c1ccc(C(=O)OC)c(N=NC(C(C)=O)C(=O)Nc2ccc(NC(=O)C(N=Nc3cc(C(=O)OC)ccc3C(=O)OC)C(C)=O)cc2)c1` (centres undefined), the GHS category worked out at 5.

Consider `C[N+](C)(CCO)CC(O)C[N+](C)(C)CCO`, for which the GHS category was found to be 4.

Consider `CC1OC(Cn2cncn2)(c2cc3cc(Cl)cc(Cl)c3o2)OC1C` (centres undefined), for which the GHS category is reported as 4.

`Cc1ccc(S(=O)(=O)NC(=O)NC(=O)C(Cl)(Cl)Cl)cc1` returned a GHS category of 5.

`O=C(O)C(c1ccccc1Cl)N1CCc2sccc2C1` (centres undefined) displayed a GHS category of 5.

As to `CC(C)C(O)C(C)(C)CO` (centres undefined), the GHS category was determined as 5.

For `O=C(Nc1ccc(Cl)cc1)Nc1ccc(Cl)c(Cl)c1`, the GHS category is on record as 5.

`CC/C=C\CCCCCCCCOC(C)=O` came in with a GHS category of 5.

`NC(N)=NCc1ccc2c(c1)OCCO2` came in with a GHS category of 5.

In the case of `CC(C)c1ccc(C(C)(C)C(C)(C)c2ccc(C(C)C)cc2)cc1`, the GHS category was determined as 5.

Compound `CC(C)(C)c1ccc(OP(Oc2ccc(C(C)(C)C)cc2C(C)(C)C)Oc2ccc(C(C)(C)C)cc2C(C)(C)C)c(C(C)(C)C)c1` displayed a GHS category of 5.

Compound `O=c1[nH]c(=O)n([C@H]2C[C@H](O)[C@@H](CO)O2)cc1C(F)(F)F` returned a GHS category of 5.

Consider `NC[C@@H]1CC[C@@H](N)[C@@H](O[C@H]2[C@H](O)[C@@H](O[C@H]3O[C@H](CO)[C@@H](O)[C@H](N)[C@H]3O)[C@H](N)C[C@@H]2N)O1`, for which the GHS category was determined as 5.

With `CCC(O)=C1C(=O)CC(C(=O)O)CC1=O` (centres undefined), the GHS category is reported as 5.

Regarding `CCOC[C@H]1CO[C@@](Cn2ccnc2)(c2cc3cc(Cl)cc(Cl)c3o2)O1`, the GHS category was found to be 4.

For the compound `O=C(O)CCC(=O)OC1N=C(c2ccccc2)c2cc(Cl)ccc2NC1=O` (centres undefined), the GHS category was 5.

`CC1Oc2cc(C(=O)C=Cc3ccc(Cl)cc3)ccc2N(C)C1=O` (centres undefined) came in with a GHS category of 5.

`NP(N)(=O)Oc1ccccc1` yielded a GHS category of 4.

For the compound `Cc1cc(C2CC2)nc(Nc2ccccc2)n1`, the GHS category is 5.

The compound `C=COC(=O)C1=C(C)N[C@@](C)(c2ccc(N3CCN(C(c4ccccc4)c4ccccc4)CC3)cc2)C(C(=O)OC)C1c1cccc([N+](=O)[O-])c1` (some centres undefined) yielded a GHS category of 4.

`CC12CCC(O)C=C1C(O)CC1(O)C2CCC2(C)C(c3ccc(=O)oc3)CCC21O` (centres undefined) registered a GHS category of 2.

In turn, `C=CC(C)(CCC=C(C)C)OC=O` (centres undefined) gave a GHS category of 5.

Regarding `CC(C)(N=C=O)c1ccc(C(C)(C)N=C=O)cc1`, the GHS category was determined as 5.

Compound `CC1(C)S[C@@H]2[C@H](NC(=O)C(N)c3ccccc3)C(=O)N2[C@H]1C(=O)OC1OC(=O)c2ccccc21` (some centres undefined) displayed a GHS category of 4.

In turn, `COC(=O)C(O)(c1cccs1)c1cccs1` yielded a GHS category of 5.

For the compound `CC(=O)OCCCCCCCCCOC(C)=O`, the GHS category is 5.

Turning to `CN[C@H](CC(N)=O)C(=O)NC(=O)[C@@H](N[C@@H]1C(=O)N2C1SC(C)(C)[C@@H]2C(=O)O)c1ccc(O)cc1` (some centres undefined), the GHS category stood at 5.

As for `CN(C)c1ccc(NC(=O)CCCSc2nnnn2C)cc1`, the GHS category is given as 4.

Turning to `O=S(=O)(O)c1cccc(N=Nc2ccc(N=Nc3ccc(Nc4ccccc4)c4c(S(=O)(=O)O)cccc34)c3ccccc23)c1`, the GHS category worked out at 5.

`CC(=O)C1(c2ccccc2)CCN(CCCOc2ccc3c(c2)NC(=O)CC3)CC1` returned a GHS category of 4.

`CC(=O)COc1nn(-c2cccc(C(F)(F)F)c2)c2ncccc12` gave a GHS category of 4.

`c1ccc(C2CCCCC2)cc1`: the GHS category was found to be 5.

The compound `OC1(c2ccc(-c3ccccc3)cc2)c2ccccc2C2=NCCN21` (centres undefined) yielded a GHS category of 4.

In the case of `O=C(c1ccc(OC2CCOC2)cc1)c1cc(I)ccc1Cl` (centres undefined), the GHS category is reported as 4.

In the case of `CC1CC(OC(=O)C(C)Oc2ccc(F)cc2)CC(C)(C)C1` (centres undefined), the GHS category was found to be 5.

In turn, `CCOC(=O)c1cnn(-c2cccc(C)c2)c1C#N` came in with a GHS category of 4.

The compound `Nc1cc(Cl)c(Cl)cc1S(=O)(=O)O` came in with a GHS category of 5.

Take `N#CCC(=O)OCC(COC(=O)CC#N)(COC(=O)CC#N)COC(=O)CC#N`: the GHS category came out at 5.

On to `C[C@H]1[C@H](NC(=O)C(=NOC(C)(C)C(=O)O)c2csc(N)n2)C(=O)N1S(=O)(=O)O`, for which the GHS category stood at 5.

`CCC1Nc2cc(Cl)c(S(N)(=O)=O)cc2S(=O)(=O)N1` (centres undefined): the GHS category was 5.

With `CCCCN(CCCC)C(=S)SCSC(=S)N(CCCC)CCCC`, the GHS category turned out to be 5.

With `CCCCCCCCCCCCCCCC(=O)OCC(CC)CCCC` (centres undefined), the GHS category was 5.

Turning to `C[C@@H]1C[C@H]2[C@@H]3CCC4=CC(=O)C=C[C@]4(C)[C@@]3(F)[C@@H](O)C[C@]2(C)[C@@]1(O)C(=O)COS(=O)(=O)O`, the GHS category is 5.
